We go through three compounds from patent US7276347B2 (priority 2004, dated 2007).

Assay [1] relates to monoclonal antibody to HCY Oxime-KLH (example 4b). The class given is binding, mice.
Assay [2] relates to antibodies to HCY Oxime-BTG (example 4a). The class given is binding, mice.

Regarding `O=P1(N(CCCl)CCCl)NCCCO1` (stereo not drawn) [cyclophosphamide], in assay [1], the “% Cross-Reactivity” value is listed as under 0.1% and the “IC 50” value is given as >100,000 ng/ml. Further, in assay [2], the “% Cross-Reactivity” value is under 0.3% and the “IC 50” value was >10,000 ng/ml.

Take `O=C(O)CCCc1ccc(N(CCCl)CCCl)cc1` [Chlorambucil, chlorambucil]: the “% Cross-Reactivity” value in assay [1] was under 0.1%; in assay [2], under 0.3%. For the same compound, the “IC 50” value is >100,000 ng/ml in assay [1] and >10,000 ng/ml in assay [2].

In the case of `N[C@@H](Cc1ccc(N(CCCl)CCCl)cc1)C(=O)O` [Melphalan, melphalan], in assay [1], the “% Cross-Reactivity” value is reported as under 0.1% and the “IC 50” value is on record as >100,000 ng/ml. Moreover, in assay [2], the “% Cross-Reactivity” value is on record as under 0.3% and the “IC 50” value is listed as >10,000 ng/ml.
